From BindingDB's records for doi:10.1021/acs.jmedchem.8b00875 (2019)

Legend:
[1] = target: T1, 5-hydroxytryptamine receptor 2C (Homo sapiens, UniProt P28335); assay: Positive allosteric modulation of 5-HT2C receptor (unknown origin) assessed as increase in 5-HT-induced displacement of [3H]mesulergine by measuring 5-HT Ki at 20 uM (Rvb = 159 nM)
T1 sequence (P28335 whole entry): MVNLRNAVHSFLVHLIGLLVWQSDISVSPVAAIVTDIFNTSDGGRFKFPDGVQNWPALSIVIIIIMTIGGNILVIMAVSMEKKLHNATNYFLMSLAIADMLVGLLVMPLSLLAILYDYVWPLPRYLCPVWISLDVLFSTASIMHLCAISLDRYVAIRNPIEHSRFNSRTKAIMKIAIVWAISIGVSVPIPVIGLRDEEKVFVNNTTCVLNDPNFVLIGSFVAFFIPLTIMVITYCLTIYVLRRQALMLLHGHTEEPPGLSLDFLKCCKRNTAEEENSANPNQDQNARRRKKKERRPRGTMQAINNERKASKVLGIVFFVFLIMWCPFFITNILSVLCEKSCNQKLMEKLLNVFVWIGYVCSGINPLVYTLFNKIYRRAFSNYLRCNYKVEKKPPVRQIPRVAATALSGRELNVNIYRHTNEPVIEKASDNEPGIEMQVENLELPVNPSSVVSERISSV

[2] = target: T2, Muscarinic acetylcholine receptor M1 (Homo sapiens, UniProt P11229); assay: Positive allosteric modulation of M1 AchR (unknown origin)
T2 sequence (P11229 whole entry): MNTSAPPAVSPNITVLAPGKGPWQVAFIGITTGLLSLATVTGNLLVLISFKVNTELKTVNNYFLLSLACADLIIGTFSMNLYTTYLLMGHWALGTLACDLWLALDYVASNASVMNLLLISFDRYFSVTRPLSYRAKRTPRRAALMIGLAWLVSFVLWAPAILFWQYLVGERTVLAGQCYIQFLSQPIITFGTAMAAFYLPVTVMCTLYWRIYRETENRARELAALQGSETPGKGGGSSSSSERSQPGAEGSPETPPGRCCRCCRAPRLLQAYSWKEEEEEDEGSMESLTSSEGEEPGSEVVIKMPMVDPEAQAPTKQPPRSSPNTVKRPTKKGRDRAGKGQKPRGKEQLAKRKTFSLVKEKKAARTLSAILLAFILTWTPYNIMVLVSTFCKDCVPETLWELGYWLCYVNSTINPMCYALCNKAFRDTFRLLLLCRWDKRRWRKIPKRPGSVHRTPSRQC

Structure (SMILES) | Ki [1] [nM] | EC50 [2] [nM]
CCCCCCCCCCC[C@@H]1CCN[C@H](C(=O)N[C@@H]([C@H]2O[C@H](SC)[C@H](O)[C@@H](O)[C@H]2O)[C@H](C)Cl)C1 | 6.4 | 
Cn1cc(-c2ccc(Cn3cc(C(=O)N[C@H]4CCCC[C@@H]4O)c4c(F)cc(F)cc43)cn2)cn1 |  | 210
